According to patent publication US20040133938A1, “Use of lipoic acid in plant culture media” (priority 2002, published 2004):

Tested on: A3244 soybean seed axis explants
Assay: Soybean Agrobacterium transformation, lipoic acid in co-culture media
Assay type: cell-based
Description: Dry A3244 soybean seeds were germinated by soaking in sterile distilled water (SDW) for three minutes, drained and allowed to slowly imbibe for 2 hours at which time Bean Germination Media (BGM) was added. At approximately 12 hours, seed axis explants were isolated by removing seed coats and cotyledons. Inoculation occurred 14 hours after the addition of SDW.
Explants were placed into sterile Plantcons™ with 20 mL of pMON15737/ABI (FIG. 3) and resuspended to an optical density A660 of approximately 0.3 in 1/10 Gamborg's B5 media (Gamborg et al., Exp. Cell Res., 50:151-158, 1968) containing 3% glucose, 1.68 mg/L BAP, 3.9 g/L MES, […] acetosyringone, 1 mM galactronic acid, and 0.25 mg/L GA3. Each Plantcon™ was sonicated for 20 seconds in a L&R Quantrex S140 sonicator that contained SDW+0.1% Triton X100 in the bath. Plantcons™ were held in place at approximately 2.5 cm below the surface of the bath liquid. Following sonication, explants were inoculated for an additional hour while shaking gently on an orbital shaker at ˜90 RPM. After inoculation, the Agrobacterium was removed. […] Co-culture media consisted of 1/10 Gamborg's B5 media containing 5% glucose, 1.68 mg/L BAP, 3.9 g/L, […] acetosyringone, 1 mM galactronic acid and 0.25 mg/L GA3. Explants were incubated at 23° C. in the dark for 3 days.
Lipoic acid was dissolved in either ethanol or potassium hydroxide to make 100 mg/mL stock. […]
Following co-culture, explants were transferred to solid Woody Plant Media (WPM) (McCown & Lloyd, Proc. International Plant Propagation Soc., 30:421, 1981) containing 2% sucrose, 200 mg/L carbenicillin, 100 mg/L Timetin (ticarcillin+clavulanic acid), +/−100 mg/L cefotaxime, 60 mg/L Benomyl, and 75 μM glyphosate. All explants were placed at 28° C., 16-hour light/8-hour dark photoperiod. A second transfer to the same media was made after two weeks.
Shoots were cut 5-8 weeks post-inoculation and rooted on Bean Rooting Media (BRM) containing 25 μM glyphosate and 100 mg/L Timetin.

[1] = 5 uM LA, KOH, 248 explants, Table 12
[2] = 5 uM LA, 244 explants, Table 12
[3] = 10 uM LA, KOH, 240 explants, Table 12
[4] = 10 uM LA, 247 explants, Table 12
[5] = 50 uM LA, KOH, 246 explants, Table 12
[6] = 50 uM LA, 242 explants, Table 12
[7] = 100 uM LA, KOH, 246 explants, Table 12
[8] = 100 uM LA, 396 explants, Table 12
[9] = 250 uM LA, KOH, 505 explants, Table 11
[10] = 250 uM LA, 246 explants, Table 12
[11] = 250 uM LA, 486 explants, Table 11
[12] = 500 uM LA*, 171 explants, Table 12
[13] = 500 uM LA, KOH, 462 explants, Table 11
[14] = 500 uM LA, 531 explants, Table 11
[15] = 750 uM LA, KOH, 454 explants, Table 11
[16] = 750 uM LA, 535 explants, Table 11
[17] = 1000 uM LA, KOH, 471 explants, Table 11
[18] = 1000 uM LA, 530 explants, Table 11
[19] = 1500 uM LA, KOH, 498 explants, Table 11
[20] = 1500 uM LA, 538 explants, Table 11

Compound: O=C(O)CCCCC1CCSS1 (centres unmarked) [lipoic acid, 1,2-dithiolane-3-pentanoic acid]
- Shooting Frequency [1]: 5%
- Total Rooted Plants [1]: 2
- Total Shoots [1]: 13
- Transformation Efficiency [1]: 0.8%
- Shooting Frequency [2]: 7%
- Total Rooted Plants [2]: 3
- Total Shoots [2]: 18
- Transformation Efficiency [2]: 1.2%
- Shooting Frequency [3]: 5%
- Total Rooted Plants [3]: 0
- Total Shoots [3]: 13
- Transformation Efficiency [3]: 0.0%
- Shooting Frequency [4]: 6%
- Total Rooted Plants [4]: 0
- Total Shoots [4]: 14
- Transformation Efficiency [4]: 0.0%
- Shooting Frequency [5]: 7%
- Total Rooted Plants [5]: 1
- Total Shoots [5]: 17
- Transformation Efficiency [5]: 0.4%
- Shooting Frequency [6]: 9%
- Total Rooted Plants [6]: 1
- Total Shoots [6]: 22
- Transformation Efficiency [6]: 0.4%
- Shooting Frequency [7]: 7%
- Total Rooted Plants [7]: 2
- Total Shoots [7]: 18
- Transformation Efficiency [7]: 0.8%
- Shooting Frequency [8]: 10%
- Total Rooted Plants [8]: 3
- Total Shoots [8]: 39
- Transformation Efficiency [8]: 0.8%
- Rooted Plants [9]: 13
- Shooting Frequency [9]: 12%
- Total Shoots [9]: 63
- Transformation Efficiency [9]: 2.6%
- Shooting Frequency [10]: 13%
- Total Rooted Plants [10]: 9
- Total Shoots [10]: 32
- Transformation Efficiency [10]: 3.7%
- Rooted Plants [11]: 7
- Shooting Frequency [11]: 14%
- Total Shoots [11]: 69
- Transformation Efficiency [11]: 1.4%
- Shooting Frequency [12]: 11%
- Total Rooted Plants [12]: 5
- Total Shoots [12]: 19
- Transformation Efficiency [12]: 2.9%
- Rooted Plants [13]: 7
- Shooting Frequency [13]: 10%
- Total Shoots [13]: 44
- Transformation Efficiency [13]: 1.5%
- Rooted Plants [14]: 9
- Shooting Frequency [14]: 12%
- Total Shoots [14]: 64
- Transformation Efficiency [14]: 1.7%
- Rooted Plants [15]: 7
- Shooting Frequency [15]: 12%
- Total Shoots [15]: 56
- Transformation Efficiency [15]: 1.5%
- Rooted Plants [16]: 9
- Shooting Frequency [16]: 12%
- Total Shoots [16]: 62
- Transformation Efficiency [16]: 1.7%
- Rooted Plants [17]: 6
- Shooting Frequency [17]: 8%
- Total Shoots [17]: 40
- Transformation Efficiency [17]: 1.3%
- Rooted Plants [18]: 12
- Shooting Frequency [18]: 10%
- Total Shoots [18]: 52
- Transformation Efficiency [18]: 2.3%
- Rooted Plants [19]: 10
- Shooting Frequency [19]: 11%
- Total Shoots [19]: 57
- Transformation Efficiency [19]: 2.0%
- Rooted Plants [20]: 13
- Shooting Frequency [20]: 10%
- Total Shoots [20]: 53
- Transformation Efficiency [20]: 2.4%
- increase of transformation frequency (lipoic acid concentration of 250 μM): about ninefold
- effect on transformation efficiency, shoot and rooted plant production (lipoic acid concentrations of 250 μM to 1500 μM): increased transformation efficiency
- effectiveness in the soybean transformation protocol (low levels of lipoic acid (5 to 100 μM)): not particularly effective
